From patent publication US9650399B2, “Salicylic acid derivatives, pharmaceutically acceptable salt thereof, composition thereof and method of use thereof” (The Governing Council of the University of Toronto, priority 2012, dated 2017)
“Also recorded” adds a separate entry of the source. Where two headings read alike, the source gives them in different places.

Assays:
[1] = molecular target: T1, JAK2 (Homo sapiens, UniProt O60674); test: HotSpot radiometric kinase assay, JAK2; assay type: biochemical; conditions: 5 uM compound, 10 μM ATP, duplicate (Data 1, Data 2); for remaining activity at 5 µM: read-out: % Enzyme activity relative to DMSO (control), JAK2
T1 construct: purchased Reaction Biology Corporation
Experimental: (§1) Briefly, this assay employs a radiometric detection system to measure kinase phosphoryl transfer activity.
(§2) Test compound was evaluated at a single dose of 5 μM in duplicate mode. […] Reactions were carried out at 10 μM ATP.
(§3) Preliminary screen against AKT, c-Src, ERK1, JaK1 and JaK2 was performed at Reaction Biology Corporation (www.reactionbiology.com, Malvern, Pa.) using the “HotSpot” assay platform. Specific kinase/substrate pairs along with their required cofactors were prepared in reaction buffer; 20 mM Hepes pH 7.5, 10 mM MgCl2, 1 mM EGTA, 0.02% Brij35, 0.02 mg/ml BSA, 0.1 mM Na3VO4, 2 mM DTT, 1% DMSO. The screen was completed in duplicate at a single concentration of 5 μM. The reaction well with the subject compound was treated with a mixture of ATP (Sigma, St. Louis Mo.) and ^33P ATP (Perkin Elmer, Waltham Mass.) to a final concentration of 10 μM. […] Reaction wells were kept at room temperature for 120 minutes, followed by spotting each of the reactions onto P81 ion exchange filter paper (Whatman Inc., Piscataway, N.J.). […] Background was subtracted using control reactions and the kinase activity data was expressed as the percent remaining kinase activity in test samples compared to vehicle (dimethyl sulfoxide) reactions. All IC50 values (table 3) and curve fitting were produced using Prism (GraphPad Software) (FIG. 5).

[2] = tested on: leukemia cancer cells (AML-2); test: IC50 in leukemia cancer cells; assay type: cell-based; conditions: Table 6
[3] = tested on: BTSC73M; test: alamarBlue cell viability, BTSC 73M; assay type: cell-based, human; conditions: Homo sapiens
Outline: (§4)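 Patient-derived GBM brain tumour stem cells, dissociated spheres seeded at 1500 cells/96-well, or 3000 cells/96-well in one setup. Drug or DMSO vehicle added one day after plating. Viability read by alamarBlue after 72 hrs, triplicate wells.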

[4] = tested on: BTSC30M; test: alamarBlue cell viability, BTSC 30M; assay type: cell-based, human; conditions: Homo sapiens
Outline: as §4

[5] = tested on: Breast cancer cells (MDA-MB-468); test: IC50 in breast cancer cells; assay type: cell-based; conditions: Homo sapiens, Table 6
[6] = molecular target: T2, JAK1 (Homo sapiens, UniProt P23458); test: HotSpot radiometric kinase assay, JAK1; assay type: biochemical; conditions: 5 uM compound, 10 μM ATP, duplicate (Data 1, Data 2); for remaining activity at 5 µM: read-out: % Enzyme activity relative to DMSO (control), JAK1
T2 construct: purchased Reaction Biology Corporation
Experimental: as §1, §2, §3

[7] = molecular target: T3, ERK1 (Homo sapiens, UniProt P27361); test: HotSpot radiometric kinase assay, ERK1; assay type: biochemical; conditions: 5 uM compound, 10 μM ATP, duplicate (Data 1, Data 2); for remaining activity at 5 µM: read-out: % Enzyme activity relative to DMSO (control), ERK1
T3 construct: purchased Reaction Biology Corporation

[8] = tested on: Prostate (DU145); test: IC50 in prostate cancer cells; assay type: cell-based; conditions: Homo sapiens, DU-145; Table 6
[9] = tested on: normal human fetal astrocytes (HF 2003, HF 2006, HF 2009, HF 2013); test: toxicity in normal human fetal astrocytes; assay type: cell-based; conditions: concentrations of up to 5 μM
Experimental: Given the nM cytoxicity, these compounds were assayed for biological effects in healthy cells.
GBM BTSCs were cultured from a series of tumor specimens obtained following informed consent from adult GBM patients during their operative procedure as previously described (Kelly et al, Stem Cells 2009) and approved by the University of Calgary Ethics Review Board. Briefly, BTSC cultures were initiated in serum-free defined culture medium (SFM) and gave rise to nonadherent spheres after 7 to 21 days in culture. Primary tumor spheres were expanded for several passages and then cryopreserved in 10% DMSO (Sigma Aldrich) in serum-free defined medium until use in experiments. Human fetal neural stem cells were also cultured as previously described and induced to differentiate into astrocytes by addition of 10% fetal bovine serum and removal of EGF, FGF-2 and heparan sulfate.

[10] = molecular target: T4, AKT1 (Homo sapiens, UniProt P31749); test: HotSpot radiometric kinase assay, AKT1; assay type: biochemical; conditions: 5 uM compound, 10 μM ATP, duplicate (Data 1, Data 2); for remaining activity at 5 µM: read-out: % Enzyme activity relative to DMSO (control), AKT1
T4 construct: purchased Reaction Biology Corporation

[11] = tested on: BTSCs; test: alamarBlue cytotoxicity across BTSC lines; assay type: cell-based, human; conditions: Homo sapiens; for EC50: read-out: EC50s across all 8 BTSCs evaluated; for IC50: read-out: IC50 values of the top four ranked compounds against BTSCs
Experimental: First, the library was screened for biological activity against a set of three representative GBM BTSCs derived from GBM patients, including the very aggressive GBM BTSC lines, BTSC73M, BTSC30M, BTSC68EF. Dissociated BTSC spheres were seeded at 1500 cells/96-well and treated with drug compound or vehicle (DMSO) one day after plating. Cell viability following drug treatment was assessed after 72 hrs using the ALAMARBLUE™ assay (Invitrogen) according to the manufacturer's instructions. All culture experiments were performed in triplicate with a minimum of three wells per condition.
BTSC spheres were dissociated to single cells with the enzyme Accumax (Innovative Technologies), seeded at 1500 cells/96-well and treated with drug or vehicle (DMSO) one day after plating. […] BTSC spheres were dissociated to single cells as above and plated in 96 well plates in triplicate at 3000 cells/96-well. […] Cell viability following drug treatment was assessed three days later using the ALAMARBLUE™ assay (Invitrogen) according to the manufacturer's instructions. All culture experiments were performed in triplicate with a minimum of three wells per condition.

[12] = tested on: BTSC68EF; test: alamarBlue cell viability, BTSC 68EF; assay type: cell-based, human; conditions: Homo sapiens, read-out: 68EF IC50 (μM)
Outline: as §4

[13] = tested on: pSTAT3 (Y705); test: Western blot of phosphorylated STAT3 in BTSCs; assay type: cell-based, human; conditions: for suppression of pSTAT3 (Y705): 1 μM
Source text: Blots were stained with antibodies: phospho-Y705, phospho-S727, Bcl-xL, cyclin D1, PARP and Actin. Bands were visualized with the ECL PLUS™ Western Blotting Detection System and […]™ (Amersham). […] BTSC spheres were lysed in modified RIPA buffer supplemented with Complete Mini protease (Roche) and Halt phosphatase (Thermo Scientific) inhibitor cocktails. […] Blots were stained with the following antibodies: phospho-STAT3 Y705 (1:1000, Cell Signalling Technology), phospho-STAT3 S727 (1:1000, Cell Signalling Technology), STAT3 (1:1000, Santa Cruz Biotechnology), Bcl-xL (1:1000, Cell Signalling Technology), cyclin D1 (1:1000, Cell Signalling Technology) PARP (1:1000, Cell Signalling Technology) and Actin (1:2500, Santa Cruz Biotechnology). HRP conjugated secondary antibodies, goat anti-rabbit (Cell Signalling Technology) were used at 1:2000 and donkey anti-mouse, donkey anti-goat, and goat anti-rabbit, (Calbiochem) were used at 1:6000. Bands were visualized with the ECL Plus Western Blotting Detection System and Hyperfilm (Amersham).

[14] = read-out: IC50 (nM) in BTSC 30M
[15] = remaining activity, listed as SH-05-07

T4 sequence (P31749 whole entry): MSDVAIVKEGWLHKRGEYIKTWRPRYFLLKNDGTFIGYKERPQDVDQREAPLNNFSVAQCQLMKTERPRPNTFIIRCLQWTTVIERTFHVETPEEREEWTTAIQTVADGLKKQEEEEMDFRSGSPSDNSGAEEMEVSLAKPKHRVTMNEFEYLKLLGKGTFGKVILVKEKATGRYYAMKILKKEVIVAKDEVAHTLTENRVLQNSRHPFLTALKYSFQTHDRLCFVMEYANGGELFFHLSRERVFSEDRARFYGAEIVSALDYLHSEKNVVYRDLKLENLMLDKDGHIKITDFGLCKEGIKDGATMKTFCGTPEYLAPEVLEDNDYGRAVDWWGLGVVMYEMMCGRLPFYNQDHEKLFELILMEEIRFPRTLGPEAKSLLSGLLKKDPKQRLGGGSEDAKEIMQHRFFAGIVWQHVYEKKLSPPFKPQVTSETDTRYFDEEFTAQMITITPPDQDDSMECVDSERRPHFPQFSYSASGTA
T3 sequence (P27361 whole entry): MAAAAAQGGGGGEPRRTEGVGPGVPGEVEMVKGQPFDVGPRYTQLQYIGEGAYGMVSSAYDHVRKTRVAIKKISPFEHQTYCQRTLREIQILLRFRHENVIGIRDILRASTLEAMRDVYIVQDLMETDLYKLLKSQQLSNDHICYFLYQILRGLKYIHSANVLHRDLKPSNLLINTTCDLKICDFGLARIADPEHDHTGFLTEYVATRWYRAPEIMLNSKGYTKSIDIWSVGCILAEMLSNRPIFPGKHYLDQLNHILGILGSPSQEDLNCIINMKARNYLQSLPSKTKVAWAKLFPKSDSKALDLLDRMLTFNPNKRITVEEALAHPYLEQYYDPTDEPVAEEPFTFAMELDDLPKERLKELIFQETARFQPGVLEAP
T2 sequence (P23458 whole entry): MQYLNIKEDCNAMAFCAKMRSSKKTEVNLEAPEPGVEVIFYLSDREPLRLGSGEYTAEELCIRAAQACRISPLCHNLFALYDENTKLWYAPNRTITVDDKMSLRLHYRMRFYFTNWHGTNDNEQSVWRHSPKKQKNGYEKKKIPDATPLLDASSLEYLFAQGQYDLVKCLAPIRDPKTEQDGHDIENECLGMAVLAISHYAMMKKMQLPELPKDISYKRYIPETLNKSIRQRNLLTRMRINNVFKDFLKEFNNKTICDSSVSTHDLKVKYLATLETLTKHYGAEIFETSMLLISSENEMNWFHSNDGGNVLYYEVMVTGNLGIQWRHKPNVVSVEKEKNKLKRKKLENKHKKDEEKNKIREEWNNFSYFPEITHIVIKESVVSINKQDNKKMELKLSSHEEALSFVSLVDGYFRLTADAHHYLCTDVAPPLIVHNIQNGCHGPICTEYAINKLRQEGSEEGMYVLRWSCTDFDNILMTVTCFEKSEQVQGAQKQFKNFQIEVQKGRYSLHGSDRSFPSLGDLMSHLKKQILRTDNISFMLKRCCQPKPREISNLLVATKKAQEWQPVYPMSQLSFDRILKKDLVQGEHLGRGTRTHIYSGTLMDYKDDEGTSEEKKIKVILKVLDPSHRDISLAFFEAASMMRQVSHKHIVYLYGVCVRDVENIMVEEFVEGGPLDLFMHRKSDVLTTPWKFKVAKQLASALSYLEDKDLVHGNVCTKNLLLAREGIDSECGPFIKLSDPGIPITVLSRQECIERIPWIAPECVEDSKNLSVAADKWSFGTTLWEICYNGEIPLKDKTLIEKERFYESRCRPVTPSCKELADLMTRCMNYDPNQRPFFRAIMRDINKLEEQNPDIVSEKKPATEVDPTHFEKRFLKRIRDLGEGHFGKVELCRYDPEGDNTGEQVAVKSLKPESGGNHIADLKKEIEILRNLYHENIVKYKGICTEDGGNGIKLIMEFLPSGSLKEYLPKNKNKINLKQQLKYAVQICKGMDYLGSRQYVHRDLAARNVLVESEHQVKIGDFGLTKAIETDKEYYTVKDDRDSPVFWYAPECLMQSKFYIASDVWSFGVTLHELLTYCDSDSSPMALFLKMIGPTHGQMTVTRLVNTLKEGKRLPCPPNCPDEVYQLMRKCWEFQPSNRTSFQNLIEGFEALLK
T1 sequence (O60674 whole entry): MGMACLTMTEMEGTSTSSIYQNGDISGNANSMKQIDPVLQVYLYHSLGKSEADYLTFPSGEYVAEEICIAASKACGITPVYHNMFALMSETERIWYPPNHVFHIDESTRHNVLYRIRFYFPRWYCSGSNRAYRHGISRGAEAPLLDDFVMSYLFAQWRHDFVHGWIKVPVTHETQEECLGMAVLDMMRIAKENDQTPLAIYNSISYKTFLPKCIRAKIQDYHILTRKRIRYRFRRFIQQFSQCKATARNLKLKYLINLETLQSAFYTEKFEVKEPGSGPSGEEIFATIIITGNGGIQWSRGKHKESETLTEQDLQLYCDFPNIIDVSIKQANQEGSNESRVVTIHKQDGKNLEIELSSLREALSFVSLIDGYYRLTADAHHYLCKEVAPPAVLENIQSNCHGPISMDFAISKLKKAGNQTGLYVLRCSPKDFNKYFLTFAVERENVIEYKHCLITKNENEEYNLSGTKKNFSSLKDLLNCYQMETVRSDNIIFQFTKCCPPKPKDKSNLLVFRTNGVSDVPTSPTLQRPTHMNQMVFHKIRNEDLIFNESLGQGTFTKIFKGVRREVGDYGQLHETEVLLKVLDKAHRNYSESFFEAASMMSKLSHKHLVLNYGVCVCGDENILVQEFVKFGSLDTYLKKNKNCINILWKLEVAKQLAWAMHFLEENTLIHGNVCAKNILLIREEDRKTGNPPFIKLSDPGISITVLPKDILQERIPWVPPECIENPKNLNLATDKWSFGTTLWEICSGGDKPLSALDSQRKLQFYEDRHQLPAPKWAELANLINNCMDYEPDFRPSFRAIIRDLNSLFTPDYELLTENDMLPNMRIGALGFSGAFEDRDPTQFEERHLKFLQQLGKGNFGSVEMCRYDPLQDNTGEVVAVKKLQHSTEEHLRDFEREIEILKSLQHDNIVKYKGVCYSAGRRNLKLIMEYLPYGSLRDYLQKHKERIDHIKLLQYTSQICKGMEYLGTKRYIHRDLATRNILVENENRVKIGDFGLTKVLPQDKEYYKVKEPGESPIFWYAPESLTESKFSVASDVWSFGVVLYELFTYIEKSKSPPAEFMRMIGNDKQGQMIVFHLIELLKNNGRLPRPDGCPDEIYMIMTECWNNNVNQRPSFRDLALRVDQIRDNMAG

| Compound | remaining activity at 5 µM [1] [%] | IC50 [2] [nM] | IC50 [4, 14] [µM] | IC50 [5] [nM] | remaining activity at 5 µM [6] [%] | remaining activity at 5 µM [7] [%] | IC50 [8] [nM] | toxicity in normal human cells [9] | remaining activity at 5 µM [10] [%] | EC50 [11] [nM] | IC50 [11] [nM] | IC50 [12] [µM] | suppression of pSTAT3 (Y705) ([13]; Western blot, BTSCs) | further results |
| --- | --- | --- | --- | --- | --- | --- | --- | --- | --- | --- | --- | --- | --- | --- |
| CN(CC(=O)N(Cc1ccc(C2CCCCC2)cc1)c1ccc(C(=O)O)cc1)S(=O)(=O)c1c(F)c(F)c(F)c(F)c1F [Compound 31, 4-(N-(4-cyclohexylbenzyl)-2-(2,3,4,5,6-pentafluoro-N-methylphenylsulfonamido)acetamido)benzoic acid] | 62 | < 1000 | 0.432 ± 0.022 | < 1000 | 101 | 111 | 11300 | minimal toxicity; also recorded: no toxicity | 92.1 | 66 to 1140 | 100 to 3800 | 0.531 | most suppression of pSTAT3 (Y705) | IC50 ([3]; Table 2, BTSC 73M, alamarBlue, 72 hrs, read-out: IC50 (μM) 73M): 1.03 ± 0.031 µM; IC50 ([3]; Table 4 library screen, alamarBlue, read-out: 73M IC50): 1.03 µM; IC50 ([4]; read-out: 30M IC50 (μM), Table 4 library screen, alamarBlue): 0.432 µM; IC50 ([4]; read-out: IC50 (μM) 30M, Table 2, BTSC 30M, alamarBlue, 72 hrs): 0.432 ± 0.022 µM; IC50 ([4]; read-out: IC50 BTSC 30M, Table 6, in parallel with other cancer lines): 0.5 µM; pSTAT3 inhibition potency ([13]; 0, 0.1, 0.5, 1.0 and 5.0 μM, Western blot): concentration-dependant decreases in pSTAT3 levels; pSTAT3 signalling ([13]; 500 nM, Western blot, BTSCs): completely silenced pSTAT3 signalling; pSTAT3 suppression, comparative Western blot ([13]; BTSC 73M, 1 μM inhibitor): equipotent pSTAT3 suppression |
| CN(CC(=O)N(Cc1ccc(C2CCCCC2)cc1)c1ccc(C(=O)NO)cc1)S(=O)(=O)c1c(F)c(F)c(F)c(F)c1F [Compound 32, 4-(N-(4-cyclohexylbenzyl)-2-(2,3,4,5,6-pentafluoro-N-methylphenylsulfonamido)acetamido)-N-hydroxybenzamide] | 67.1 | < 1000 | 1.136 ± 0.009 | < 1000 | 101 | 110 | 15900 | minimal toxicity | 94.6 | 66 to 1140 | 100 to 3800 | ~1.01 | most suppression of pSTAT3 (Y705) | % Enzyme activity relative to DMSO (control), JAK2 [1, 15]: 61.26%; IC50 ([3]; read-out: 73M IC50 (μM)): 1.52 µM; IC50 ([4]; read-out: 30M IC50 (μM)): 1.14 µM; IC50 ([4]; read-out: IC50 BTSC 30M): 0.971 µM; % Enzyme activity relative to DMSO (control), JAK1 [6, 15]: 97.99%; % Enzyme activity relative to DMSO (control), ERK1 [7, 15]: 106.21%; % Enzyme activity relative to DMSO (control), AKT1 [10, 15]: 92.09% |
